Test results reported in article PMC9228955, “Synthesis, Physicochemical, Labeling and In Vivo Characterization of ^44Sc-Labeled DO3AM-NI as a Hypoxia-Sensitive PET Probe” (Pharmaceuticals, 2022).
Where two headings read alike, the source gives them in different places. One block for each molecule: values may come before it.

Assays:
[1] = 25 °C, cited from earlier work
[2] = Stability constant of Sc(III) complex by 1H and 45Sc NMR batch samples and pH-potentiometric titration; pSc calculation; type: physicochemical; settings: for pSc (-log[Sc(III)]free): [Sc(III)]tot = 1 × 10^−8 M, [L]tot = 1 × 10^−7 M, pH = 7.4
Procedure: The stability constant of the Sc(DO3AM-NI) complex was assessed by ^1H and ^45Sc-NMR studies using samples prepared in the 0.055–0.195 M acid concentration range. […] Absence of protonation and the presence of a ternary hydroxydo species formation with KScL•OH = 10.88(5) were detected at our experimental conditions. The NMR samples contained 3.32 mM ligand, ScCl3 and a constant ionic strength of 0.15 M NaCl. The samples were thermostated at 37 °C, and their ^1H- and ^45Sc-NMR spectra were recorded after 60 days. In order to ensure that the equilibrium in the samples was attained, the ^1H and ^45Sc-NMR measurements were repeated again 90 days later. The spectra were practically identical with the spectra recorded at 60 days (Figures S4 and S5). As expected, the thermodynamic stability constant of the Sc(DO3AM-NI) complex (log KScL = 22.36(4)) was considerably lower than those of Sc(III) complexes formed with DOTA, DTPA or AAZTA ligands (Table 1). A moderate decrease in terms of thermodynamic stability constants was already observed for the complexes of DO3A-monamides formed with Gd(III) ions in comparison to the stability of parent Gd(DOTA)^− chelate. Despite the lower stability constant of the complex, the Sc(III) ion was complexed completely around pH = 2.0 (in a millimolar concentration range, see Figure 2). However, it might be misleading to directly compare the stability constants of the complexes formed by ligands of different basicity (as it depends on the basicity of the ligand); therefore, we calculated and compared the pSc values (which could be treated as conditional constants) for the complexes shown in Table 1 by taking the protonation constants of ligands, the stability constants of the complex species present in solution and the hydrolysis of the Sc(III) ion (according to Ref. [23]: log βSc(OH) = −4.3, log βSc(OH)2 = −9.7, log βSc(OH)3 = −16.1, log βSc(OH)4 = −26.0 and log βSc2(OH)4 = −6.0) into account.
(§1) The equilibrium measurements were performed at constant ionic strength maintained by 0.15 M NaCl at 37 °C. For determining the protonation constants of DO3AM-NI, two parallel pH-potentiometric titrations were performed with 0.1611 M NaOH in a 5.00 cm^3 sample containing the ligand at the concentration of 2.76 mM. The stability constant of Sc(DO3AM-NI) was assessed by ^1H and ^45Sc NMR in 0.7 mL “batch” samples containing the metal and the ligand at 3.32 mM and different concentrations of strong acid (0.05–0.20 M) aged 90 days (see below). The formation of protonated and ternary hydroxydo complex species was probed by pH-potentiometric titration by titrating the preformed complex (at a concentration of 1.95 mM) with standardized NaOH solution. For the calculation of the logKMH-1L value, the VNaOH–pH data used were obtained in the pH range 1.68–11.85. The pH-potentiometric titrations were carried out with a Metrohm 785 DMP Titrino titration workstation with the use of a Metrohm-6.0233.100-combined electrode calibrated via a two-point calibration routine using KH-phthalate (pH = 4.005) and borax (pH = 9.177) buffers. The titrated samples were stirred with a magnetic stirrer, and N2 gas was bubbled through the solutions to avoid the effect of CO2. For the calculation of [H^+] from the measured pH values, the method proposed by Irving et al. was applied. For this, a 0.01M HCl solution was titrated with the standardized NaOH solution in the presence of 0.15 M NaCl ionic strength at 37 °C. The differences between the measured (pHread) and calculated pH (-log[H^+]) values were used to obtain the equilibrium H^+ concentration from the pHmeas values during the titrations. […] For the calculation of the equilibrium constants, the PSEQUAD program was used.
^1H- and ^45Sc-NMR measurements (400 MHz and 97 MHz, respectively) were performed with a Bruker DRX 400 (9.4 T) spectrometer equipped with a Bruker VT-1000 thermocontroller and a BB inverse z-gradient probe (5 mm). […]

[3] = 25 °C, cited from earlier work; remark: listed apart in the source
[4] = pH-potentiometric determination of ligand protonation constants; type: physicochemical; settings: 0.15 M NaCl, 37 °C
Procedure: Equilibrium measurements were commenced by determining the protonation constants of the ligand, measured at 37 °C (I = 0.15 M NaCl) owing to the relevance of the chelate under in vivo conditions. The protonation constants obtained by fitting the pH-potentiometric data for the ligand DO3AM-NI are shown in Table 1 along with the literature data published for DOTA and certain DO3A-monoamides (DO3A-mono-N-buthylamide as well as that of a hypoxia-sensitive MRI probe reported by some of us a couple of years ago). Five protonation steps were observed by performing the titration in the pH range of 1.72–11.85 for the DO3AM-NI monoamide type ligand, two of which (characterized by high constants) describe the protonation of nitrogen atoms in the macrocycle (positioned trans- to each other), while the remaining log Ki^H values (much lower) likely reflect the protonation of the carboxylates. The replacement of an acetate group of DOTA by an amide moiety results in a decrease in the protonation sites of the ligand, and as a consequence the overall basicity of the ligand (expressed as the sum of the protonation constants, log β015) was as expected, predicted from the data published in literature. What is more, the formation of a weak Na^+ complex (originating from the ionic strength) competing with the first protonation process may be responsible of the lower value of the first protonation constant.
as §1

[5] = constants at 0.1 M Me4NCl, 25 °C from Ref. 19

pSc (-log[Sc(III)]free) ([2]; constants at 0.1 M KCl, 25 °C from Ref. 20): 24.72
Structure (SMILES): CC1(N(CC(=O)O)CC(=O)O)CN(CC(=O)O)CCN(CC(=O)O)C1 [AAZTA]
log KScL•H (protonation constant of Sc(III) complex) ([1]; 0.1 M KCl): 0.86
log KSc•L (stability constant of Sc(III) complex) ([1]; 0.1 M KCl): 27.69
log K1^H ([3]; 0.1 M KCl): 11.26
log K2^H ([3]; 0.1 M KCl): 6.62
log K3^H ([3]; 0.1 M KCl): 3.86
log K4^H ([3]; 0.1 M KCl): 2.45
log K5^H ([3]; 0.1 M KCl): 1.88
log K6^H ([3]; 0.1 M KCl): 1.46

log K1^H [4]: 8.79(1)
log K2^H [4]: 8.59(1)
log K3^H [4]: 4.23(1)
log K4^H [4]: 2.49(1)
log K5^H [4]: 1.00(4)
log β015 (sum of the protonation constants) [4]: 25.10
log KScL•OH (ternary hydroxydo species) ([2]; 0.15 M NaCl, 37 °C): 10.88(5)
log KSc•L (stability constant of Sc(III) complex) ([2]; 0.15 M NaCl, 37 °C): 22.36(4)
pSc (-log[Sc(III)]free) ([2]; constants at 0.15 M NaCl, 37 °C): 20.74
Structure (SMILES): O=C(O)CN1CCN(CC(=O)O)CCN(CC(=O)NCCn2ccnc2[N+](=O)[O-])CCN(CC(=O)O)CC1 [DO3AM-NI]

Structure (SMILES): CCCCNC(=O)CN1CCN(CC(=O)O)CCN(CC(=O)O)CCN(CC(=O)O)CC1 [DO3AM^nBu, DO3A-mono-N-buthylamide]
log K1^H ([3]; 1.0 M KCl): 9.78
log K2^H ([3]; 1.0 M KCl): 9.05
log K3^H ([3]; 1.0 M KCl): 4.53
log K4^H ([3]; 1.0 M KCl): 3.17
log K5^H ([3]; 1.0 M KCl): 2.19
log β015 (sum of the protonation constants) ([3]; 1.0 M KCl): 28.72

pSc (-log[Sc(III)]free) [2, 5]: 23.92
Structure (SMILES): O=C(O)CN1CCN(CC(=O)O)CCN(CC(=O)O)CCN(CC(=O)O)CC1 [DOTA, 1,4,7,10-tetraazacyclododecane-1,4,7,10-tetraacetic acid]
log KScL•H (protonation constant of Sc(III) complex) ([1]; 0.1 M Me4NCl): 1.00
log KSc•L (stability constant of Sc(III) complex) ([1]; 0.1 M Me4NCl): 30.79
log K1^H ([3]; 0.1 M Me4NCl): 12.90
log K2^H ([3]; 0.1 M Me4NCl): 9.72
log K3^H ([3]; 0.1 M Me4NCl): 4.62
log K4^H ([3]; 0.1 M Me4NCl): 4.15
log K5^H ([3]; 0.1 M Me4NCl): 2.29
log K6^H ([3]; 0.1 M Me4NCl): 1.34
log β015 (sum of the protonation constants) ([3]; 0.1 M Me4NCl): 33.68

pSc (-log[Sc(III)]free) [2, 5]: 23.88
Structure (SMILES): O=C(O)CN(CCN(CC(=O)O)CC(=O)O)CCN(CC(=O)O)CC(=O)O [DTPA]
log KScL•H (protonation constant of Sc(III) complex) ([1]; 0.1 M Me4NCl): 1.36
log KScL•OH (ternary hydroxydo species) ([1]; 0.1 M Me4NCl): 12.44
log KSc•L (stability constant of Sc(III) complex) ([1]; 0.1 M Me4NCl): 27.43
log K1^H ([3]; 0.1 M Me4NCl): 10.65
log K2^H ([3]; 0.1 M Me4NCl): 8.66
log K3^H ([3]; 0.1 M Me4NCl): 4.36
log K4^H ([3]; 0.1 M Me4NCl): 2.82
log K5^H ([3]; 0.1 M Me4NCl): 2.03
log K6^H ([3]; 0.1 M Me4NCl): 1.31
log K7^H ([3]; 0.1 M Me4NCl): 1.30
log β015 (sum of the protonation constants) ([3]; 0.1 M Me4NCl): 28.52
